# Literature values, collected in patent publication US20100136095A1, “Systems for modulating inflammation” (Searete LLC, a limited liability corporation of the State …, priority 2008, published 2010).
# Legend:
# [1] = infused at 400 mg over one hour, single agent
# lethal septic shock = conditions: mice
# proteasome = conditions: cultured breast cancer cells; disulfiram bound to copper
# [2] = test system: Src family kinases (Src, Lck, Yes, Fyn); conditions: at nanomolar concentrations
smiles,measurement,setting,value
CCN(CC)CCCC(C)Nc1ccnc2cc(Cl)ccc12 (centres unmarked) [Chloroquine],inhibition of CpG-induced Src family kinase activation or its dependent cellular responses,Src family kinase,does not inhibit
"CCN(CC)CCCC(C)Nc1ccnc2cc(Cl)ccc12.O=P(O)(O)O.O=P(O)(O)O (centres unmarked) [Chloroquine phosphate, 7-chloro-4-[[4-(diethylamino)-1-methylbutyl]amino]quinoline phosphate (1:2)]",tolerability of infusion,[1],without complication
"Cl.Cl.Nc1ccccc1Oc1ccc2c(N)nsc2c1 [Example M62812, 3-amino-6-(2-aminophenoxy)-1,2-benzisothiazole dihydrochloride]",prevention of lethal septic shock,lethal septic shock,prevents lethal septic shock
"CCN(CC)C(=S)SSC(=S)N(CC)CC [Disulfiram, 1-(diethylthiocarbamoyldisulfanyl)-N,N-diethyl-methanethioamide]",proteasomal activity,proteasome,inhibits proteasomal activity
"Cc1nc(Nc2ncc(C(=O)Nc3c(C)cccc3Cl)s2)cc(N2CCN(CCO)CC2)n1.O [Dasatinib, N-(2-chloro-6-methylphenyl)-2-[[6-[4-(2-hydroxyethyl)-1-piperazinyl]-2-methyl-4-pyrimidinyl]amino]-5-thiazolecarboxamide, monohydrate]","inhibition of Src family kinases (Src, Lck, Yes, Fyn)",[2],inhibits
